This note sets out measurements from PubChem BioAssay AID1963863 (Molecular Pharmacology Branch, DTP, NCI, 2024).

“And” between values parts separate entries of the source, which are not always exact repeats. Identical values can stand only once. Bounds are passed on as bounds.

The experiment deals with 931267-113-T-J1-PDC KRAS spheroid with HUVEC/MSC, viability. The experiment is described as follows: Anticancer human tumor 931267-113-T-J1-PDC patient-derived colon adenocarcinoma cell line growth inhibition [KRAS2]. To be noted: for viability, T/C: stronger effect = lower value. An excerpt: Multicellular complex tumor spheroid response to RAS pathway inhibitors in combination with a targeted agents in patient-derived cell lines with oncogenic KRAS variants from multiple cancer types
A high-throughput screen of multi-cell type tumor spheroids was designed to identify active combinations of targeted small molecules and KRAS pathway inhibitors. Complex spheroids include a stromal component modeled by human endothelial cells (HUVEC) and fibroblasts modeled by human mesenchymal stem cells (MSCs). The concentration ranges selected for each drug and investigational agent were based upon clinically achievable concentrations if the clinical Cmax of the agent was known.
Compounds. The drugs and investigational agents: BI-3406 (NSC825286), BAY-293 (NSC824723), batoprotafib (TNO155; NSC825523), sotorasib (AMG 510; NSC818433), MRTX1257 (NSC819558), elimusertib (BAY 1895344; NSC800525), molibresib (GSK525762; NSC774829), temuterkib (LY3214996; NSC803410), venetoclax (NSC766270), alisertib (NSC759677), olaparib (NSC753686), talazoparib (NSC767125), erdafitinib (NSC781556), ipatasertib (NSC767898), cabozantinib (NSC761068), nintedanib (NSC756659), abemaciclib (NSC768073), docetaxel (NSC628503), trametinib (NSC758246), and sapanisertib (NSC764658) were obtained from the National Cancer Institute (NCI) Developmental Therapeutics Program Chemical Repository. The FDA-approved anticancer drug set is available from the Developmental Therapeutics Program. […] The stock solutions were prepared in dimethyl sulfoxide (DMSO, Sigma-Aldrich, St. Louis, MO, cat. D2650) at 800-fold the tested concentration and stored at -70 degrees C prior to their use. All drugs and investigational agents were tested over a range starting from a high concentration at or near the clinical Cmax and decreasing in half-log increments. If the clinical Cmax for an agent had not been determined, the highest concentration tested was 10 microM.
Cell Culture. All cells were maintained in an incubator at 37 degrees C and 5% CO2 with 95% humidity. The PDC lines were cultured according to standard operating procedures established by the NCI PDMR (https://pdmr.cancer.gov/sops/default.htm). Briefly, all PDCs were thawed and cultured in Matrigel-coated flasks prepared with a working solution of 1X Ham's F-12 nutrient mix, without supplementation (Invitrogen, Waltham, MA, cat. 11765054), 100 U/mL penicillin-streptomycin (Invitrogen, cat. 15140122), and 2.5% Matrigel (Corning Inc., Corning, NY, cat. 354248) for the first three passages. All PDCs were cultured in complete DMEM/F-12 media containing advanced DMEM/F-12 (Invitrogen, cat. 12634028), 4.9% defined fetal bovine serum, heat inactivated (HyClone Laboratories Inc., Logan, UT, cat. SH30070.03HI), 389 ng/mL hydrocortisone (Sigma-Aldrich, cat. H4001), 9.7 ng/mL human EGF recombinant protein (Invitrogen, cat. PHG0313), 23.4 microg/mL adenine (Sigma-Aldrich, cat. A2786), 97.3 U/mL penicillin-streptomycin (Invitrogen, cat. 15140122), 1.9 mM L-glutamine (Invitrogen, cat. 25030081), and 9.7 microM Y-27632 dihydrochloride (Tocris Bioscience, Bristol, United Kingdom, cat. 1254). The PDCs were cultured in complete DMEM/F12 media without 9.7 microM Y-27632 dihydrochloride for at least two passages prior to the screen. The established cell line HOP-62 was cultured in RPMI 1640 medium, HEPES (Invitrogen, cat. 22400105) with 10% defined fetal bovine serum (HyClone Laboratories Inc., cat. SH30070.03) and 2 mM L-glutamine (Invitrogen, cat. 25030081). The pooled donor HUVEC were cultured in endothelial cell growth medium 2 (PromoCell, Heidelberg, Germany, cat. C-22011) and the hMSC were cultured in mesenchymal stem cell growth medium 2 (PromoCell, cat. C-28009). For all experiments, HUVEC and hMSC were used at passages </=5, while the malignant cell lines were used at passages </=15. […]

Setting [1] is: compound alone, run of 08/26/2021.
Where [2] appears, read: compound alone, run of 09/02/2021.
Where [3] appears, read: curve of first compound, second compound 0.1 µM.
Setting [4] is: curve of first compound, second compound 0.316 µM.
[5] abbreviates: curve of first compound, second compound 1 µM.
[6] abbreviates: curve of first compound, second compound 3.16 µM.
Setting [7] is: curve of first compound, second compound 10 µM.
Setting [8] is: second compound 0.1 µM, first compound 0.01 µM.
[9] abbreviates: second compound 0.1 µM, first compound 0.0316 µM.
The mark [10] stands for this setting: second compound 0.1 µM, first compound 0.1 µM.
[11] abbreviates: second compound 0.316 µM, first compound 0.01 µM.
Where [12] appears, read: second compound 0.316 µM, first compound 0.0316 µM.
Setting [13] is: second compound 0.316 µM, first compound 0.1 µM.
The mark [14] stands for this setting: second compound 1 µM, first compound 0.01 µM.
[15] abbreviates: second compound 1 µM, first compound 0.0316 µM.
The mark [16] stands for this setting: second compound 1 µM, first compound 0.1 µM.
[17] abbreviates: second compound 3.16 µM, first compound 0.01 µM.
Setting [18] is: second compound 3.16 µM, first compound 0.0316 µM.
Where [19] appears, read: second compound 3.16 µM, first compound 0.1 µM.
[20] abbreviates: second compound 10 µM, first compound 0.01 µM.
Where [21] appears, read: second compound 10 µM, first compound 0.0316 µM.
Where [22] appears, read: second compound 10 µM, first compound 0.1 µM.
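Also: compound exposure lasted 7 days before the readout.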

As usually defined, the IC50 is the concentration needed to halve the response being measured. In the case of `C=CC(=O)N1CCN(c2nc(OCC3CCCN3C)nc3c2CCN(c2cccc4cccc(C)c24)C3)CC1CC#N` (stereo unspecified), the IC50 under setting [1] is 1.65 µM [middle of 5 runs] and the IC50 under setting [2] was 1.62 µM [middle of 5 runs].
One may read the viability, T/C as the result in the treated group divided by that in the control group, in per cent. Turning to `CNCc1ccccc1-c1csc(C(C)Nc2nc(C)nc3cc(OC)c(OC)cc23)c1` (stereo unspecified), where the note is “compound 10 µM”, the viability, T/C was 0.16% [middle of 14 runs]. Besides, the IC50 is 1.13 µM [middle of 5 runs] under setting [1] and 952 nM [middle of 5 runs] under setting [2].
With `COc1cc(OC)cc(N(CCNC(C)C)c2ccc3ncc(-c4cnn(C)c4)nc3c2)c1`, the viability, T/C by setting is: (compound 0.1 µM) 101% [middle of 5 runs]; (compound 0.316 µM) 107% [middle of 5 runs]; (compound 1 µM) 107% [middle of 5 runs]; (compound 10 µM) 0.45% [middle of 4 runs]. Further, the IC50 (curve of compound) is 4.66 µM [middle of 4 runs].
`COc1cc2nc(C)nc(NC(C)c3cc(N)cc(C(F)(F)F)c3)c2cc1OC1CCOC1` (stereo unspecified): the IC50 is 4.74 µM [middle of 4 runs] under setting [1] and 4.4 µM [middle of 6 runs] under setting [2].
On to `COc1cc2nccc(Oc3ccc(NC(=O)C4(C(=O)Nc5ccc(F)cc5)CC4)cc3)c2cc1OC`, for which the viability, T/C by setting is: (compound 0.316 µM) 96.5% [middle of 5 runs]; (compound 1 µM) 105% [middle of 5 runs]; (compound 3.16 µM) 60.4% [middle of 5 runs]. Moreover, the IC50 (curve of compound) was > 10 µM and 6.16 µM and 10 µM.
In the case of `CC(=O)OC12COC1CC(O)C1(C)C(=O)C(O)C3=C(C)C(OC(=O)C(O)C(NC(=O)OC(C)(C)C)c4ccccc4)CC(O)(C(OC(=O)c4ccccc4)C21)C3(C)C` (stereo unspecified) + C=CC(=O)N1CCN(c2nc(=O)n(-c3c(C)ccnc3C(C)C)c3nc(-c4c(O)cccc4F)c(F)cc23)C(C)C1, the IC50 was above 3.16 µM under setting [3]; above 3.16 µM under setting [4]; above 3.16 µM under setting [5]; above 3.16 µM under setting [6]; above 3.16 µM under setting [7]. Also, the viability, T/C under setting [8] is 93.1%; the viability, T/C under setting [9] is 96.3%; the viability, T/C under setting [10] is 83.3%; the viability, T/C (second compound 0.1 µM, first compound 0.316 µM) is 82.9%; the viability, T/C (second compound 0.1 µM, first compound 1 µM) was 84.2%; the viability, T/C (second compound 0.1 µM, first compound 3.16 µM) is 102%. The viability, T/C was 94.4% under setting [11]; 116% under setting [12]; 110% under setting [13]; 77.6% (second compound 0.316 µM, first compound 0.316 µM); 110% (second compound 0.316 µM, first compound 1 µM); 119% (second compound 0.316 µM, first compound 3.16 µM). The viability, T/C by setting is: under setting [14], 102%; under setting [15], 106%; under setting [16], 103%; (second compound 1 µM, first compound 0.316 µM) 81%; (second compound 1 µM, first compound 1 µM) 117%; (second compound 1 µM, first compound 3.16 µM) 90.6%. In addition, the viability, T/C runs as follows: under setting [17], 103%; under setting [18], 93.9%; under setting [19], 91.1%; (second compound 3.16 µM, first compound 0.316 µM) 96.8%; (second compound 3.16 µM, first compound 1 µM) 99.6%; (second compound 3.16 µM, first compound 3.16 µM) 113%. Besides, the viability, T/C is 87.1% under setting [20]; 116% under setting [21]; 98.7% under setting [22]; 110% (second compound 10 µM, first compound 0.316 µM); 116% (second compound 10 µM, first compound 1 µM); 113% (second compound 10 µM, first compound 3.16 µM).
Turning to `CN(C)C/C=C/C(=O)Nc1cc2c(Nc3ccc(F)c(Cl)c3)ncnc2cc1O[C@H]1CCOC1` + C=CC(=O)N1CCN(c2nc(=O)n(-c3c(C)ccnc3C(C)C)c3nc(-c4c(O)cccc4F)c(F)cc23)C(C)C1, the IC50 is above 0.1 µM under setting [3]; above 0.1 µM under setting [4]; above 0.1 µM under setting [5]; above 0.1 µM under setting [6]; above 0.1 µM under setting [7]. The viability, T/C was 103% (second compound 0.1 µM, first compound 0.000316 µM); 91.6% (second compound 0.1 µM, first compound 0.001 µM); 76.1% (second compound 0.1 µM, first compound 0.00316 µM); 83.5% under setting [8]; 115% under setting [9]; 117% under setting [10]. Moreover, the viability, T/C by setting is: (second compound 0.316 µM, first compound 0.000316 µM) 97.5%; (second compound 0.316 µM, first compound 0.001 µM) 105%; (second compound 0.316 µM, first compound 0.00316 µM) 95.1%; under setting [11], 96.1%; under setting [12], 117%; under setting [13], 98.6%. The viability, T/C (second compound 1 µM, first compound 0.000316 µM) was 110%; the viability, T/C (second compound 1 µM, first compound 0.001 µM) was 121%; the viability, T/C (second compound 1 µM, first compound 0.00316 µM) was 83.7%; the viability, T/C under setting [14] was 90.8%; the viability, T/C under setting [15] was 84.9%; the viability, T/C under setting [16] was 96.5%. Moreover, the viability, T/C is, setting by setting: (second compound 3.16 µM, first compound 0.000316 µM) 138%; (second compound 3.16 µM, first compound 0.001 µM) 128%; (second compound 3.16 µM, first compound 0.00316 µM) 117%; under setting [17], 95%; under setting [18], 126%; under setting [19], 105%. Further, the viability, T/C (second compound 10 µM, first compound 0.000316 µM) is 146%; the viability, T/C (second compound 10 µM, first compound 0.001 µM) was 138%; the viability, T/C (second compound 10 µM, first compound 0.00316 µM) was 119%; the viability, T/C under setting [20] is 99.2%; the viability, T/C under setting [21] was 110%; the viability, T/C under setting [22] is 108%.
